{
  "source": "ChEMBL document CHEMBL3817766",
  "about": "“Application of the Huisgen cycloaddition and 'click' reaction toward various 1,2,3-triazoles as HIV non-nucleoside reverse transcriptase inhibitors” (Bioorg Med Chem Lett, 2016)",
  "key": {"[1]": {"experiment": "Inhibition of HIV reverse transcriptase transfected in HEK293T cells assessed as reduction in viral replication measured at 48 hrs postinfection by luciferase reporter based single-cycle non replicative phenotypic assay", "format": "cell-based", "settings": "Human immunodeficiency virus 1, HEK-293T"}, "[2]": {"experiment": "Cytotoxicity against mouse EL4.3 cells assessed as reduction in cell viability by MTT assay", "format": "cell-based"}},
  "data": [
    {"molecule": "N#Cc1cccc(Cn2cc(CCO)nn2)c1", "values": [
      {"measurement": "IC50", "setting": "[1]; read-out: IC50", "result": "> 83.5", "unit": "µM"},
      {"measurement": "CC50", "setting": "[2]", "result": "> 100", "unit": "µM"}
    ]},
    {"molecule": "CCc1nn(CCO)nc1C(OC)c1cc(Cl)cc(Cl)c1", "note": "(stereo not drawn)", "values": [
      {"measurement": "IC50", "setting": "[1]; read-out: IC50", "result": 14.1, "unit": "µM"},
      {"measurement": "CC50", "setting": "[2]", "result": 95.1, "unit": "µM"}
    ]},
    {"molecule": "CCc1nn(CC)nc1C(OC)c1cc(Cl)cc(Cl)c1", "note": "(stereo not drawn)", "values": [
      {"measurement": "IC50", "setting": "[1]; read-out: IC50", "result": "> 49", "unit": "µM"},
      {"measurement": "CC50", "setting": "[2]", "result": 89, "unit": "µM"}
    ]},
    {"molecule": "CCc1nn(CCO)nc1Cc1cc(C)cc(C)c1", "values": [
      {"measurement": "IC50", "setting": "[1]; read-out: IC50", "result": "> 100", "unit": "µM"},
      {"measurement": "CC50", "setting": "[2]", "result": "> 100", "unit": "µM"}
    ]},
    {"molecule": "CCc1nn(CCO)nc1Cc1cccc(C#N)c1", "values": [
      {"measurement": "IC50", "setting": "[1]; read-out: IC50", "result": "> 100", "unit": "µM"},
      {"measurement": "CC50", "setting": "[2]", "result": "> 100", "unit": "µM"}
    ]},
    {"molecule": "CCc1c(CCO)nnn1Cc1cc(Cl)cc(Cl)c1", "values": [
      {"measurement": "IC50", "setting": "[1]; read-out: IC50", "result": 45.2, "unit": "µM"},
      {"measurement": "CC50", "setting": "[2]", "result": "> 100", "unit": "µM"}
    ]},
    {"molecule": "OCc1cn(Cc2cc(C(F)(F)F)cc(C(F)(F)F)c2)nn1", "values": [
      {"measurement": "IC50", "setting": "[1]; read-out: IC50", "result": "> 24.5", "unit": "µM"},
      {"measurement": "CC50", "setting": "[2]", "result": "> 53.4", "unit": "µM"}
    ]},
    {"molecule": "CCc1nnn(Cc2cc(C)cc(C)c2)c1CCO", "values": [
      {"measurement": "IC50", "setting": "[1]; read-out: IC50", "result": "> 100", "unit": "µM"},
      {"measurement": "CC50", "setting": "[2]", "result": "> 100", "unit": "µM"}
    ]},
    {"molecule": "CCc1c(CCO)nnn1Cc1ccccc1", "values": [
      {"measurement": "IC50", "setting": "[1]; read-out: IC50", "result": "> 100", "unit": "µM"},
      {"measurement": "CC50", "setting": "[2]", "result": "> 100", "unit": "µM"}
    ]},
    {"molecule": "CCc1nnn(Cc2cccc(C#N)c2)c1CCO", "values": [
      {"measurement": "IC50", "setting": "[1]; read-out: IC50", "result": "> 100", "unit": "µM"},
      {"measurement": "CC50", "setting": "[2]", "result": "> 100", "unit": "µM"}
    ]},
    {"molecule": "CCc1c(CCO)nnn1Cc1cccc(C#N)c1", "values": [
      {"measurement": "IC50", "setting": "[1]; read-out: IC50", "result": "> 100", "unit": "µM"},
      {"measurement": "CC50", "setting": "[2]", "result": "> 100", "unit": "µM"}
    ]},
    {"molecule": "Cc1cc(C)cc(Cn2cc(CO)nn2)c1", "values": [
      {"measurement": "IC50", "setting": "[1]; read-out: IC50", "result": 27.8, "unit": "µM"},
      {"measurement": "CC50", "setting": "[2]", "result": "> 100", "unit": "µM"}
    ]},
    {"molecule": "CCc1nnn(Cc2ccccc2)c1CCO", "values": [
      {"measurement": "IC50", "setting": "[1]; read-out: IC50", "result": "> 100", "unit": "µM"},
      {"measurement": "CC50", "setting": "[2]", "result": "> 100", "unit": "µM"}
    ]},
    {"molecule": "CCc1nnn(Cc2cc(Cl)cc(Cl)c2)c1CCO", "values": [
      {"measurement": "IC50", "setting": "[1]; read-out: IC50", "result": 72.6, "unit": "µM"},
      {"measurement": "CC50", "setting": "[2]", "result": "> 100", "unit": "µM"}
    ]},
    {"molecule": "CCc1nn(CCO)nc1Cc1cc(Cl)cc(Cl)c1", "values": [
      {"measurement": "IC50", "setting": "[1]; read-out: IC50", "result": 23.8, "unit": "µM"},
      {"measurement": "CC50", "setting": "[2]", "result": 84.7, "unit": "µM"}
    ]},
    {"molecule": "OCc1cn(Cc2ccccc2)nn1", "values": [
      {"measurement": "IC50", "setting": "[1]; read-out: IC50", "result": "> 83.5", "unit": "µM"},
      {"measurement": "CC50", "setting": "[2]", "result": "> 100", "unit": "µM"}
    ]},
    {"molecule": "Cc1ccnc2c1NC(=O)c1cccnc1N2C1CC1", "note": "[NEVIRAPINE]", "values": [
      {"measurement": "IC50", "setting": "[1]", "result": 0.091, "unit": "µM"}
    ]}
  ]
}
